Assay results taken from article PMC7544826 (Communications Biology, 2020).

Tested on: Wnt3a-dependent TCF/LEF activation
Assay: TOP-FLASH luciferase assay without the addition of Notum (control)
Assay type: cell-based
Conditions: concentrations up to 1 mM, no Notum added
Experimental: . OPTS is a common lipase substrate with an octanoyl lipid linked to a fluorescent moiety. It is not a natural Notum substrate; however, it can be used to quantify the enzymatic activity of purified Notum protein[23],[25],[28]. […]. […]. […]. The stable HEK293 STF cell line[31] carrying the Super Top Flash firefly luciferase reporter was split into 96-well plates and transfected 24 h later with a constitutive Renilla luciferase plasmid (pRL-TK, Promega) at 20 ng DNA per well using Lipofectamine 2000 (Life Technologies, UK). The media were replaced with test media 16 h later. […] The firefly and Renilla luciferase activities were measured 24 h later with Dual-Glo luciferase reporter assay system (Promega, Madison, WI) using an Ascent Lunimoskan luminometer (Labsystems). The firefly luciferase activity was normalized to Renilla luciferase activity (relative light unit, RLU). Luciferase reporter assays were performed in triplicate.
Supplementary Figure 1. […].

With `Cn1c(=O)c2c(ncn2C)n(C)c1=O` [caffeine, 1,3,7-trimethylxanthine] as the compound, how does the “Effect on Wnt3a-induced luciferase activity without Notum” value read?
Its value is “did not affect luciferase activity”.
